In patent publication US20200038513A1, “MODULATORS OF FAK PROTEOLYSIS AND ASSOCIATED METHODS OF USE” (ARVINAS OPERATIONS, INC., priority 2018, published 2020):

Tests used:
set of 468 kinases = test: KinomeScan kinase engagement assay (DiscoverX); format: binding; details: 1000 nM, 403 non-mutant kinases
Procedure: The Kinase engagement assay was performed by DiscoverX assessing binding abilities towards a set of 468 kinases.
Examination of Target Protein Selectivity. To assess the target selectivity of exemplary compound 102 over a large panel of different kinases, a DiscoverX KINOMEScan was performed. KINOMEScan measures compound binding to individual kinases via the compounds ability to compete/displace the kinases from an immobilized support that non-selectively binds kinase active sites. […] It appears that the slight loss in inhibitory potency due to linker and VHL ligand attachment results in greater selectivity.

MDA-MB-231 cells = test: Wound healing assay; format: cell-based, human; details: 24 hours
Procedure: MDA-MB-231 cells were maintained in complete growth medium (RPMI-1640) at 37° C. supplied with 5% CO2. Cells (1×10^6) were split in to a 12-well plate. After 24 hours an even wound was created across each well using a sterile 10 μL pipette tip and the cells were washed with warm phosphate-buffered solution (PBS) twice to remove any floating or dead cells. This time point was considered as 0 hours and cells were incubated in fresh medium containing exemplary compound or control as indicated, for 24 hours. Images of wounded area were captured at 0 hour and after 24 hours using a camera attached to a light microscope. Images were analyzed by ImageJ software and wounded area was quantified. The area of the remaining wound at 24 hours was subtracted from the area of the wound at 0 hour. Percent wound healing (migration) was calculated and data presented as a bar graph using Prism 7.0 (GraphPad). Differences between groups were analyzed by Welch's t-test and considered significant when p<0.05.
Since Fak is a key regulator of cell motility, exemplary compound 102 was evaluated for its effect on cell migration and invasion. […] Effects on cell migration were analyzed in a wound healing assay using the aggressive and invasive human TNBC cell line MDA-MB-231. […] Wound closure was quantified after 24 hours (FIGS. 13A and 13B).

androgen receptor (AR) = test: Western blot validation of RPPA results in MDA-MB-231 cells; format: cell-based, human; details: 10% FBS, varying concentrations
Procedure: (§1) If not indicated otherwise, cells were seeded and grown to 80% confluency and were treated with compound or control for 24 hours. Subsequently, the growth media was removed and the cells lysed by the addition of lysis buffer (25 mM Tris, pH 7.4; 1% NP-40, 0.25% deoxycholate, 1 mM sodium vanadate, 10 mM sodium fluoride, 10 mM sodium pyrophosphate, 20 mM β-glycerophosphate and 1× complete EDTA-free protease inhibitor cocktail (Roche)). After 20 minutes the mixture was spun down at 16,000×g for 10 minutes at 4° C. to pellet insoluble materials. Protein concentration of supernatants were determined via BCA assay (Thermo Fisher) before addition of NuPAGE sample buffer containing 5% β-Me and boiling at 95° C. for 10 minutes. Equal amounts of protein were subjected to SDS-PAGE and subsequent electrophoretic transfer onto nitrocellulose membrane. Rabbit antibodies were purchased from Cell Signaling: Fak (3285), p-Fak (3283), p-Paxillin (2541), p-Akt (S473)(4060), GAPDH (2118), Androgen Receptor (5153), p-Src(Y527)(2105), p-S6RP (2215). Mouse antibodies were purchased from Cell Signaling: tubulin (3873), S6RP (2317). Secondary antibody ∝-rabbit (31460) or ∝-mouse (31444) was coupled to horseradish peroxidase and purchased from Thermo Fisher. Immunoblots were developed using enhanced chemiluminescence and visualized using a Bio-Rad Chemi-Doc MP Imaging System and quantitated with Image Lab v.5.2.1 software (Bio-Rad Laboratories). Data analysis and statistics was performed using Prism 7.0 (GraphPad).
(§2) It has been previously shown that extranuclear AR is involved in cell migration and forms a multiprotein complex comprised of filamin A/β-1 integrin/Fak/AR in NIH3T3 fibroblasts that facilitates Fak activation. […] Phosphorylation of S6RP occurs via the Src-Fak-PI3K pathway and p-S6RP is required for the initiation of translation in response to cell growth and proliferation.

p-Akt(S473) = test: as above; format: cell-based, human; details: 10% FBS, varying concentrations
Procedure: as §1, §2

p-S6RP(S240/S244) = test: as above; format: cell-based, human; details: 10% FBS, varying concentrations
Procedure: as §1, §2

p-Src(Y527) = test: as above; format: cell-based, human; details: 10% FBS, varying concentrations
Procedure: as §1, §2

S6RP = test: Western blot of S6RP total levels in MDA-MB-231 cells; format: cell-based, human; details: 10% FBS, varying concentrations
Procedure: as §1, with “Secondary antibody ∝-rabbit (31460) or ∝-mouse (31444) was coupled to horseradish peroxidase and purchased from Thermo Fisher.” left out, “Data analysis and statistics was performed using Prism 7.0 (GraphPad).” left out

Fak = Fak (Homo sapiens, UniProt Q05397); test: Kinase activity assay (Reaction Biology Corp.); format: biochemical; parameters: purchased Reaction Biology Corp. (contract assay service); details: 10 μM ATP, n = 2
Procedure: Reactions were carried out at 10 μM ATP. IC50 values were calculated using Prism 7.0 (GraphPad).

Fak, sequence (Q05397 whole entry): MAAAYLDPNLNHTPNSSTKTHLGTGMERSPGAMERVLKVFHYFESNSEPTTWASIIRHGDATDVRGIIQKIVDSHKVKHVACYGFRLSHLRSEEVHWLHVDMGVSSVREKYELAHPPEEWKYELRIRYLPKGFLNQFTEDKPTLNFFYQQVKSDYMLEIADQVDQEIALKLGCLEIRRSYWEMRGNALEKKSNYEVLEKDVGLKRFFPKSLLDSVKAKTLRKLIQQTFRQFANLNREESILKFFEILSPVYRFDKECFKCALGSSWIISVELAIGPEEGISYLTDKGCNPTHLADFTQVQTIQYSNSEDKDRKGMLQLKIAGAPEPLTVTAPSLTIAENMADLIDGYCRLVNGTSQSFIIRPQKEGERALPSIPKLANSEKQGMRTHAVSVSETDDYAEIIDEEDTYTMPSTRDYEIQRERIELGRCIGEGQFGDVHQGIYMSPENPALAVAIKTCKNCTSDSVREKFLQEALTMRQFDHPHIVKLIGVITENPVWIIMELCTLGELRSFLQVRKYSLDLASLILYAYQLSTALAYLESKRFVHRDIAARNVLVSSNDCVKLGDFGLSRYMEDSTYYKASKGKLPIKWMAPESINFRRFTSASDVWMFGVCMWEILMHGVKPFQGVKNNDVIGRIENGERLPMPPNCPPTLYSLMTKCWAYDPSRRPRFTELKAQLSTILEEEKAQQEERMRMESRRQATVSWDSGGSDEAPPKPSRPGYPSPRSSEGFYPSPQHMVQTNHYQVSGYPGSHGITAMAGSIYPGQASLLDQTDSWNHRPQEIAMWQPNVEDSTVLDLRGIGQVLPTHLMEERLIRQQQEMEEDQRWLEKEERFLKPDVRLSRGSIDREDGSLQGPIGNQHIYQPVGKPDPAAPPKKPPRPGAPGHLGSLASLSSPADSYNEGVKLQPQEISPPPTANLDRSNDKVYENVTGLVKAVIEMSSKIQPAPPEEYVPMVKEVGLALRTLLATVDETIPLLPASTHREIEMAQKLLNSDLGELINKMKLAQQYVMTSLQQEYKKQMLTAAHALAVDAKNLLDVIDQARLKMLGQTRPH

SMILES: Cc1ncsc1-c1ccc(CNC(=O)[C@@H]2C[C@@H](O)CN2C(=O)[C@@H](NC(=O)CCOCCOc2ccc(Nc3ncc(C(F)(F)F)c(NCc4cccc(N(C)S(C)(=O)=O)c4)n3)cc2)C(C)(C)C)cc1 [Compound 102, (2S,4R)-1-((S)-3,3-dimethyl-2-(3-(2-(4-((4-((3-(N-methylmethylsulfonamido)benzyl)amino)-5-(trifluoromethyl)pyrimidin-2-yl)amino)phenoxy)ethoxy)propanamido)butanoyl)-4-hydroxy-N-(4-(4-methylthiazol-5-yl)benzyl)pyrrolidine-2-carboxamide]
- Number of Hits, S(10) (set of 468 kinases): 7
- Selectivity Score, S(1) (set of 468 kinases): 0.002
- Selectivity Score, S(10) (set of 468 kinases): 0.017
- Selectivity Score, S(35) (set of 468 kinases): 0.05
- Number of Hits, S(35) (set of 468 kinases; less than 35% of control remaining): 20
- reduction of wound healing (MDA-MB-231 cells; 50 nM): 53%
- impairment of wound closure (MDA-MB-231 cells; 250 nM): 70%
- AR levels (in words) (androgen receptor (AR)): reduction of AR levels
- p-Akt(S473) levels (in words) (p-Akt(S473)): reduced levels of p-Akt(S473)
- phosphorylation of S6RP (in words) (p-S6RP(S240/S244)): reduced phosphorylation
- p-Src(Y527) levels (in words) (p-Src(Y527)): reduced levels
- total S6RP levels (in words) (S6RP): unchanged
- IC50 (Fak): 6.5 nM
